Consider 6 molecules from ChEMBL document CHEMBL2034982, “Synthesis of new 2-galactosylthiazolidine-4-carboxylic acid amides. Antitumor evaluation against melanoma and breast cancer cells” (Eur J Med Chem, 2012).

Assay [1] has as its system A-375. The assay is described as follows: Cytotoxicity against human A375 cells after 48 hrs by MTT assay. It counts as functional, cell-based. To be noted: for IC50: A-375, 48 h.
Assay [2] has as its system MCF7. The assay is described as follows: Selectivity index, ratio of IC50 for human HFF1 cells to IC50 for human MCF7 cells. It counts as functional.
Assay [3] in a line: Cytotoxicity against human HFF1 cells after 48 hrs by MTT assay. It counts as cell-based. As to conditions: HFF-1, 48 h.
Assay [4] has as its system MCF7. The assay is described as follows: Cytotoxicity against human MCF7 cells after 48 hrs by MTT assay. It counts as functional, cell-based. As to conditions: for IC50: MCF7, 48 h.
Assay [5] concerns A-375. In words: Selectivity index, ratio of IC50 for human HFF1 cells to IC50 for human A375 cells. In kind it is functional.
The next assay relates to HCC1806. In words: Cytotoxicity against human HCC1806 cells after 48 hrs by MTT assay. It counts as functional, cell-based. As to conditions: HCC1806, 48 h.
The test system of assay [6] is A-375. The assay is described as follows: Cell cycle arrest in human A375 cells assessed as accumulation at S phase at 17 uM after 48 hrs using propidium iodide staining by FACS flow cytometry (reference value: 23.0 +/- 3.3%). It counts as functional.
Assay [7] has as its system A-375. In words: Induction of apoptosis in human A375 cells assessed as increase in ratio of Bax/Bcl2 at 30 uM after 48 hrs by fluorescence assay relative to control. In kind it is functional, cell-based.
For assay [8], the system named is A-375. In words: Cytotoxicity against human A375 cells assessed as increase in necrotic cells at 17 to 30 uM after 48 hrs by annexin V/propidium iodide staining based FACS flow cytometry. In kind it is functional, cell-based.
For assay [9], the system named is A-375. The assay is described as follows: Cytotoxicity against human A375 cells assessed as increase in late apoptotic cells at 17 to 30 uM after 48 hrs by annexin V/propidium iodide staining based FACS flow cytometry. In kind it is functional, cell-based.
For assay [10], the system named is A-375. The assay is described as follows: Cell cycle arrest in human A375 cells assessed as accumulation at S phase at 30 uM after 48 hrs using propidium iodide staining by FACS flow cytometry (reference value: 23.0 +/- 3.3%). It counts as functional.
Assay [11] relates to A-375. The assay is described as follows: Cell cycle arrest in human A375 cells assessed as accumulation at sub G1 phase at 30 uM after 48 hrs using propidium iodide staining by FACS flow cytometry. In kind it is functional.
The test system of assay [12] is A-375. In words: Cell cycle arrest in human A375 cells assessed as accumulation at G2 phase at 17 uM after 48 hrs using propidium iodide staining by FACS flow cytometry (reference value: 10.6 +/- 1.2%). It counts as functional.
For assay [13], the system named is A-375. The assay is described as follows: Cytotoxicity against human A375 cells after 48 hrs by annexin V/propidium iodide staining based FACS flow cytometry. It counts as functional, cell-based.
The test system of assay [14] is A-375. In words: Cell cycle arrest in human A375 cells assessed as accumulation at G1 phase at 17 uM after 48 hrs using propidium iodide staining by FACS flow cytometry (reference value: 66.4 +/- 4.1%). In kind it is functional.
In assay [15] the test system is A-375. The assay is described as follows: Cell cycle arrest in human A375 cells assessed as accumulation at sub G1 phase at 17 uM after 48 hrs using propidium iodide staining by FACS flow cytometry. In kind it is functional.
In assay [16] the test system is A-375. In words: Induction of apoptosis in human A375 cells after 48 hrs using propidium iodide staining by FACS flow cytometry. In kind it is functional, cell-based.
Assay [17] relates to A-375. In words: Cytotoxicity against human A375 cells assessed as decrease in viable cells at 17 to 30 uM after 48 hrs by annexin V/propidium iodide staining based FACS flow cytometry. It counts as functional, cell-based.
In assay [18] the test system is A-375. The assay is described as follows: Cell cycle arrest in human A375 cells assessed as accumulation at G1 phase at 30 uM after 48 hrs using propidium iodide staining by FACS flow cytometry (reference value: 66.4 +/- 4.1%). In kind it is functional.
For assay [19], the system named is A-375. The assay is described as follows: Cytotoxicity against human A375 cells assessed as increase in apoptotic cells at 17 to 30 uM after 48 hrs by annexin V/propidium iodide staining based FACS flow cytometry. It counts as functional, cell-based.
Assay [20] deals with A-375. The assay is described as follows: Cell cycle arrest in human A375 cells assessed as accumulation at G2 phase at 30 uM after 48 hrs using propidium iodide staining by FACS flow cytometry (reference value: 10.6 +/- 1.2%). In kind it is functional.
Assay [21] deals with A-375. The assay is described as follows: Induction of apoptosis in human A375 cells assessed as increase in ratio of Bax/Bcl2 at 17 uM after 48 hrs by fluorescence assay relative to control. In kind it is functional.

Molecules are shown by their SMILES. Active and inactive are the calls of the source. The calls are words filed in the database; no cut-off is given here.

With `CN(C)/N=N/c1[nH]cnc1C(N)=O` [DACARBAZINE], in the assay on A-375 [1], the IC50 was more than 500 µM.

As to `CCCCCCCCCCCCCCNC(=O)C1CSC([C@H](O)[C@@H](OC(C)=O)[C@@H](OC(C)=O)[C@@H](COC(C)=O)OC(C)=O)N1C(C)=O` (mixture of isomers), the “Ratio IC50” value turned out to be 2.2 with MCF7 [2] and 1 in the assay on A-375 [5]. Besides, the Activity result with A-375 [1] and in the assay with MCF7 [4] was “Dose-dependent effect” each time. Besides, the IC50 with A-375 [1] is 19.6 µM; in assay [3], 19.6 µM; in the assay on MCF7 [4], 8.4 µM.

`CCCCCCCCCCCCNC(=O)C1CSC([C@H](O)[C@@H](OC(C)=O)[C@@H](OC(C)=O)[C@@H](COC(C)=O)OC(C)=O)N1C(C)=O` (mixture of isomers): the results for the “Ratio IC50” value with MCF7 [2] and with A-375 [5] were 0.91 and 0.22, respectively. In addition, the Activity result in the assay on A-375 [1] and with MCF7 [4] was “Dose-dependent effect” in each case. Further, the figures for the IC50 (in the assay with A-375 [1]; in assay [3]; with MCF7 [4]) were 23.1 µM, 2.9 µM and 7.5 µM, respectively.

As for `CCCCCCCCCCCCCCCCNC(=O)C1CSC([C@H](O)[C@@H](OC(C)=O)[C@@H](OC(C)=O)[C@@H](COC(C)=O)OC(C)=O)N1C(C)=O` (mixture of isomers), the 50% inhibitory concentration (IC50) in the assay with HCC1806 was found to be 12.6 µM; in the assay with A-375 [1] it was 17 µM; in [3], 29.8 µM; in the assay on MCF7 [4], 5.8 µM. Moreover, the Activity in the assay on A-375 [6] is 23.6%; with A-375 [10], 46%; in the assay with A-375 [11], 16.6%; in the assay on A-375 [1], “Dose-dependent effect”; in the assay on A-375 [12] it was 16%; in the assay with A-375 [13] it was “Dose-dependent effect”. The Activity entry was “Dose-dependent effect” in the assay with MCF7 [4]; 60.6% in the assay on A-375 [14]; 5.6% in the assay on A-375 [15]; “Dose-dependent effect” in the assay with A-375 [16]; 43.6% with A-375 [18]; 10.2% in the assay with A-375 [20]. The “Ratio IC50” value turned out to be 5.8 in the assay with MCF7 [2] and 1.8 with A-375 [5]. The outcome with A-375 [7], in the assay on A-375 [8], in the assay with A-375 [9], in the assay on A-375 [17] and with A-375 [19] was Active. Also, the Ratio in the assay with A-375 [21] stood at 2.

Consider `CCCCCCCCCCCCCCCCCCNC(=O)C1CSC([C@H](O)[C@@H](OC(C)=O)[C@@H](OC(C)=O)[C@@H](COC(C)=O)OC(C)=O)N1C(C)=O` (mixture of isomers), for which the “Ratio IC50” value in the assay on MCF7 [2] is recorded as 3; in the assay with A-375 [5], 1.1. Further, the Activity entry in the assay with A-375 [1] and in the assay on MCF7 [4] was “Dose-dependent effect” in each case. Further, the results for the 50% inhibitory concentration (IC50) (in the assay with A-375 [1]; in [3]; in the assay on MCF7 [4]) were 20.5 µM, 27.2 µM and 7.7 µM, respectively.

As for `CC(=O)O[C@@]12CO[C@@H]1C[C@H](O)[C@@]1(C)C(=O)[C@H](O)C3=C(C)[C@@H](OC(=O)[C@H](O)[C@@H](NC(=O)OC(C)(C)C)c4ccccc4)C[C@@](O)([C@@H](OC(=O)c4ccccc4)[C@H]21)C3(C)C` [DOCETAXEL], the results for the IC50 in the assay with HCC1806 and in the assay on MCF7 [4] were 8.4 µM and 11.9 µM, respectively.
